The text below walks through data of article PMC6435586 (Frontiers in Pharmacology, 2019).

Where no end group is shown, it is not given here.

The data set is described as follows: Serum stability assay. The format is in vitro ADME, human. The following applies: peptide 6.6 μM. The method, then:
The serum stability of the peptides was tested using human male serum (Sigma, USA), as previously described ([Chan et al., 2011]). All peptides were tested at a final concentration of 6.6 μM after dilution from a stock solution at 200 μM. The serum was centrifuged at 17,000g for 10 min to remove the lipid component, and the supernatant incubated at 37°C for 15 min, prior to conducting the assay. The peptides were incubated in serum or phosphate-buffered saline (PBS) at 37°C, and aliquots were taken at 0, 3, 8, and 24 h (40-μl aliquots were taken in triplicate). The aliquots of serum were quenched with 40 μl of 6 M urea and incubated for 10 min at 4°C. The aliquots were then quenched with 40 μl of 20% trichloroacetic acid (TCA) and incubated for another 10 min at 4°C to precipitate serum proteins. Finally, samples were centrifuged at 17,000g for 10 min, and 90 μl of the supernatant was analyzed on reversed-phase HPLC using a Phenomenex Jupiter Proteo C12 analytical column (150 mm × 2.00 mm, 4 μm, 90 Å, Phenomenex, Torrance, CA, USA) and a linear gradient of solvent B [90% acetonitrile/10% H2O, 0.045% trifluoroacetic acid (TFA)] at a flow rate of 0.4 ml/min using an Agilent 1260 Infinity system (Agilent Technologies, Hanover, Germany). The control samples contained equivalent amounts of the peptides in PBS and were subjected to the same treatment procedure. The stability at each time point was calculated based on the area of the RP-HPLC peaks following incubation with serum at 214 nm as a percentage of the area of 0-h serum-treated peptides ([Chan et al., 2013]).

Usually fraction remaining stands for the share of the starting amount still present when the sample was taken. On to MAMPAFTTDH-NH2 [CTX-1], for which, under “human male serum, 37°C, 24 h, RP-HPLC at 214 nm”, the “detection of peptide in human serum over time” value is “could be detected up to 24 h”. Moreover, where the note is “lipid component removed by centrifugation, human male serum (lipid removed by centrifugation, pre-incubated 15 min at 37°C), 8 h, RP-HPLC C12 peak area at 214 nm as % of 0-h serum-treated peptide, triplicate, mean, read-out: peptide remaining at the 8-h time point in human serum”, the fraction remaining at 8 h, 6.6 μM is more than 18%.

QMARKADDAAG-NH2 [CTX-2]: for the setting “human male serum, 37°C, 0-24 h, RP-HPLC at 214 nm”, the “relative stability in human serum among the fragments (in words)” value was “most stable of the peptides tested”. For the substance YGPQALAR-NH2 [CTX-4], the fraction remaining at 3 h, 6.6 μM (lipid component removed by centrifugation, human male serum (lipid removed by centrifugation, pre-incubated 15 min at 37°C), 3 h, RP-HPLC C12 peak area at 214 nm as % of 0-h serum-treated peptide, triplicate, mean, read-out: peptide remaining after 3 h in human serum) is less than 10%.
